Test results published in US20230123497A1, “NOVEL ANTIBACTERIAL HYDROGELS” (NewSouth Innovations Pty Limited, priority 2020, published 2023).
Where “and” joins values, the source holds several entries; their conditions need not be identical. Identical values can stand only once.

How the values were obtained:
[1] = Hydrogel formation, vial inversion test (critical gel concentration); type: physicochemical; details: for Remarks (gel state): vial inversion test; for CGC: triggers GdL
Excerpt: (§1) The simplest method to determine whether a suitable hydrogel has formed is to use the vial inversion test. Through visual inspection, a material can be categorised as a solution, viscous solution, partial gel, or solid-like gel. A stable hydrogel needs to be able to hold its weight and/or maintain its shape during this assessment.
(§2) The critical gel concentration (CGC) is defined as the minimum mass of a short peptide required to provide a self-supporting hydrogel per unit volume in the vial inversion test (measured as % w/v).
(§3) Pre-weighed samples of short peptide 4 were prepared in aluminium-covered glass vials and Milli-Q water and 2 equivalents of NaOH (1.0 M) were added to make up concentrations of 1% w/v. The resulting suspensions were vortexed for 5 minutes to provide clear yellow solutions with pH 11.
(§4) To create a high ionic strength environment, 1 equivalent of NaCl was added and the vial was left to stand without disturbance for 3 hours at room temperature. Meanwhile, as an attempt to form a hydrogel by lowering the pH, 2 equivalents of GdL were added to a high pH solution of 4 followed by gentle mixing. These vials were inverted and allowed to stand overnight to confirm the hydrogel formation.
(§5) The formation of hydrogel 4 via the solvent switch method was conducted by dissolving short peptide 4, in an aluminium covered glass vial, with either 50% methanol, ethanol, or dimethyl sulfoxide (DMSO). Respective amounts of Mili-Q water were added to make up concentrations of 1% w/v.
(§6) In addition, gelation time was defined as the time (hours) required for 1% w/v of short peptide 4 to form a hydrogel which can be turned upside down without collapsing.
(§7) Pre-weighed samples of short peptides 10a-17a, 18, and 19 were prepared in glass vials with 10 mm internal diameter, and Milli-Q water was added to make up concentrations of 1% w/v. The resulting suspensions of short peptides 13, 18, and 19 (as ammonium or guanidinium salts) were slowly warmed until all solid had completely dissolved. GdL (1.5 to 2.0 equivalents) was added to the suspension of short peptides 10a-17a, before heat was applied. To create a high ionic strength environment, 1-5 equivalents of NaCl was added to the viscous solution of 10a-17a to make the total volume up to 1 mL, followed by gentle mixing, and the vial was left to stand without disturbance for 3 hours at room temperature. Subsequently, these vials were inverted and allowed to stand overnight to confirm hydrogel formation.

[2] = Atomic force microscopy (AFM) of fibers; type: physicochemical; details: for fiber bundle diameter: hydrogel after addition of salt, 4× below CGC; for fiber diameter: hydrogel, 4× below CGC (17 imaged at 0.10% w/v)
Protocol: Hydrogels of NO-releasing short peptide 4 (1 drop), at high pH, low pH, and after irradiation, were cast onto a mica substrate. Hydrogels of cationic short peptides 11-13 and 15-19 were prepared at their CGC, 2× below, and 4× below CGC in glass vials. Prior to gelation, one drop of the cationic short peptide solutions was cast onto a mica substrate. Using a glass slide, each droplet was carefully spread and was left to dry overnight before imaging. Imaging was performed using a Bruker Multimode 8 Atomic Force Microscope in Scanasyst Air (PeakForce Tappings) mode, which is based on tapping mode AFM. To prevent damage of soft samples, the imaging parameters were constantly optimized through the force curves that were collected. Bruker Scanasyst-Air probes were used, with a spring constant of 0.4-0.8 N·m^−1 and a tip radius of 2 nm.
To gain some insight on the mechanism of antibacterial action, the released solutions from hydrogel made of primary ammonium 11 were directly cast onto a mica substrate. […] After gently spreading using a glass slide and left to dry overnight, these samples were imaged using a similar manner as describe above.

[3] = Frequency sweep test (FST), rheometer; type: physicochemical; details: for G′ (modulus storage) / G″ (modulus loss): FST fixed strain 0.1%
Protocol: The mechanical properties of anthranilamide-based cationic hydrogels were assessed using an Anton Paar MCR 302 rheometer with a 25 mm stainless parallel plate configuration.
(§8) Initially, 1 mL of hydrogels were prepared from short peptides 11-13 and 15-19 in glass vials at concentration of 1% w/v. These vials were warmed using a heat gun to transform the hydrogel to the solution phase. Subsequently, 560 μL of the resulting solutions were cast onto the rheometer plate. The other plate was lowered to the measuring position ([…]) and the hydrogel was allowed to stand for 3 hours for the gel to form. The FST was conducted at fixed strain of 0.1% and frequency ranging from 10 Hz to 0.01 Hz. Meanwhile, the strain sweep test (SST) was performed at a frequency of 1 Hz using 0.1% strain to 100% strain. The rheology data were shown as the average of three repeats for each data point.
(§9) The mechanical properties of hydrogels 4 (formed via addition of NaCl or GdL) before and after blue light irradiation were also assessed using an Anton Paar MCR 302 rheometer with a 25 mm stainless parallel plate configuration. Prior to the hydrogel formation, 560 μL of solution phase of short peptide 4 at 1% w/v were transferred onto a rheometer plate. Meanwhile, hydrogel 4, which had been exposed to blue light, was warmed using a heat gun, to provide its solution phase. Subsequently, 560 μL of this solution phase was cast onto the rheometer plate. The other plate was lowered to the measuring position ([…]) and the hydrogel was allowed to stand for 3 hours for the gel to form. The frequency sweep test (FST) was conducted at fixed strain of 0.1% and frequency ranging from 10 Hz to 0.01 Hz. Meanwhile, the SST was performed at a frequency of 1 Hz using 0.1% strain to 100% strain. In addition, the temperature sweep test was conducted to obtain transition glass (Tg) using fixed frequency of 1 Hz and fixed strain of 0.1% with temperature ramping from 25° C. to 90° C. The rheology data were shown as the average of three repeats for each data point.
In the FST, samples were measured over a range of oscillation frequencies (0.1-10 rad/s) at fixed strain, temperature, and oscillation amplitude. Higher frequencies simulate fast motion on a short time-scale, while low frequencies simulate slow motion on a long time-scale, or rest. All of the hydrogels made from the anthranilamide-based short cationic peptides, which passed the vial inversion test, were subjected to the FST using a rheometer to precisely assess their mechanical properties.

[4] = system: S. aureus 38; test: Antibacterial activity of cationic hydrogels, viable count method; type: cell-based, Staphylococcus aureus; details: hydrogel at 1% w/v in contact with S. aureus, compared to control
Protocol: The antibacterial activity of the anthranilamide-based cationic hydrogels 11-13 and 15-19 was investigated in vitro against S. aureus. The antibacterial activity of anthranilamide-based cationic hydrogel 11 was also investigated in vitro against E. coli.
First, a single colony of S. aureus 38 or E. coli K12 was grown in Luria-Bertani (LB) broth medium at 37° C. overnight. The resulting bacteria were harvested, via centrifugation, to obtain a bacteria pellet which was re-suspended in the same volume of LB medium, twice. The optical density (OD) value of the resulting culture was adjusted to 0.1 at 600 nm in LB (10^8 cfu·mL^−1). This bacteria solution was then further adjusted to 3×10^4 cfu mL^−1. (CFU or cfu=colony-forming unit). Bacteria solutions (1 mL), which contain either 10^8 CFUs/mL or 3×10^4 CFUs/mL, were gently added to hydrogel 11 at 1% w/v with total volume of 1 mL. Anthranilamide-based cationic hydrogels 11-13 and 15-19 (1 mL) were prepared at 1% w/v in glass vials as described above. On top of these pre-formed hydrogels, 1 mL of bacteria solution was carefully cast. […] As a negative control, a bacterial solution in the absence of hydrogel was used. After being incubated at 37° C. for 18 hours, 100 μL of bacteria solution in each vial was taken and subjected to serial dilution using phosphate buffer solution (PBS). 20 μL of each dilution were carefully transferred into nutrient agar plates and incubated for another 18 hours. The following day, bacterial growth inhibition was quantified using the viable count method. The experiment was performed twice in triplicate and multiple sample comparison was performed using one-way ANOVA at p<0.05.

[5] = Strain sweep test (SST), linear viscoelastic region; type: physicochemical; details: hydrogels at 1% w/v, SST at 1 Hz, 0.1% to 100% strain
Protocol: as §8, §9
To observe the structural decay in anthranilamide-based cationic hydrogels, the SST was performed by imposing a non-linear strain. SST provides information about the viscoelastic properties of a hydrogel through determination of its linear viscoelastic region (LVER). […] Here, the LVER reported for each hydrogel represents the deviation of storage modulus (G′) from linearity, known as yield point (γy). Yield points have been reported to reflect a point where the rigidity of a hydrogel starts to weaken.

[6] = Hydrogel formation, vial inversion test (critical gel concentration); type: physicochemical; parameters: key: VS: viscous solution; CG: clear gel; details: vial inversion test
Excerpt: as §1, §2, §3, §4, §5, §6, §7

[7] = as above; type: physicochemical; parameters: key: OG: opaque gel; P: precipitate; details: cationic peptides 10-14; vial inversion test
Excerpt: as §1, §2, §3, §4, §5, §6, §7

[8] = as above; type: physicochemical; parameters: key: CG: clear gel; PG: partial gel; OG: opagque gel; details: cationic peptides 15-19
Excerpt: as §1, §2, §3
To create a high ionic strength environment, 1 equivalent of NaCl was added and the vial was left to stand without disturbance for 3 hours at room temperature. Meanwhile, as an attempt to form a hydrogel by lowering the pH, 2 equivalents of GdL were added to a high pH solution of 4 followed by gentle mixing. These vials were inverted and allowed to stand overnight to confirm the hydrogel formation. […]

[9] = hydrogels of cationic peptides 10-14
[10] = cationic peptides 10-14, heat and NaCl (13: heat and NaCl)
[11] = cationic peptides 15-19, heat and NaCl (18, 19: heat and NaCl)
[12] = hydrogels of cationic peptides 15-19

## NCCNC(=O)[C@H](Cc1ccccc1)NC(=O)c1ccccc1NC(=O)c1ccc2ccccc2c1 [Compound 10]
[1]; cationic peptides 10-14
  Remarks (gel state): CG → PG
[1]; [9]
  pH: 5.5

## CN(C)CCCNC(=O)[C@H](Cc1ccccc1)NC(=O)c1ccccc1NC(=O)c1ccc2ccccc2c1 [Compound 12]
[2]
  fiber bundle diameter: 139±10 nm
[3]; hydrogels 11-13 at 1% w/v
  G′/G″ ratio: 15.7
  G′ (modulus storage): 8.63 kPa
  G″ (modulus loss): 0.55 kPa
[4]
  bacterial reduction: 5.1 Log10
[1]; [10]
  CGC: 0.3 % w/v
[1]; [9]
  pH: 5.5
[5]
  LVER (linear viscoelastic region): 0.98 ± 0.02%
[6]; cationic peptides 10-14
  Remarks (gel state): CG

## C[N+](C)(C)CCCNC(=O)[C@H](Cc1ccccc1)NC(=O)c1ccccc1NC(=O)c1ccc2ccccc2c1.[I-] [Compound 13, (S)-3-(2-(2-(2-naphthamido)benzamido)-3-phenylpropanamido)-N,N,N-trimethylpropan-1-aminium iodide]
[2]
  fiber bundle diameter: 148±16 nm
[3]; hydrogels 11-13 at 1% w/v
  G′/G″ ratio: 10.9
  G′ (modulus storage): 2.28 kPa
  G″ (modulus loss): 0.21 kPa
[4]
  bacterial reduction: 4.1 Log10
[1]; [10]
  CGC: 0.2 % w/v
[1]; [9]
  pH: 6
[7]
  Remarks (gel state): OG
[5]
  LVER (linear viscoelastic region): 1.10 ± 0.04%

## N=C(N)NCCCNC(=O)[C@H](Cc1ccccc1)NC(=O)c1ccccc1NC(=O)c1ccc2ccccc2c1 [Compound 14]
[1]; [9]
  pH: 6

## CN(C)CCCNC(=O)[C@H](Cc1ccccc1)NC(=O)c1ccc(F)cc1NC(=O)c1ccc2ccccc2c1 [Compound 15]
[2]
  fiber bundle diameter: 115±10 nm
[3]; hydrogels 15-19 at 1% w/v
  G′/G″ ratio: 20
  G′ (modulus storage): 1.20 kPa
  G″ (modulus loss): 0.06 kPa
[4]
  bacterial reduction: 3.1 Log10
[8]
  Remarks (gel state): OG
[1]; [11]
  CGC: 0. % W/V
[1]; [12]
  pH: 5.5
[5]
  LVER (linear viscoelastic region): 2.01% and 2.01 ± 0.06%

## CN(C)CCCNC(=O)[C@H](Cc1ccccc1)NC(=O)c1ccc(Br)cc1NC(=O)c1ccc2ccccc2c1 [Compound 17]
[2]
  fiber diameter: 101±6 nm
[3]; hydrogels 15-19 at 1% w/v
  G′/G″ ratio: 4.0
  G′ (modulus storage): 0.08 kPa
  G″ (modulus loss): 0.02 kPa
[1]; cationic peptides 15-19
  Remarks (gel state): OG → PG
[1]; [12]
  pH: 5.5
[5]
  LVER (linear viscoelastic region): 0.16% and 0.16 ± 0.01%

## CN(C)CCCNC(=O)[C@H](Cc1ccccc1)NC(=O)c1ccccc1NC(=O)c1ccc2ccccc2c1 [Compound 18, (S)-3-(2-(2-(2-naphthamido)benzamido)-3-phenylpropanamido)-N,N-dimethylpropan-1-aminium Ttrifluoroacetate]
[2]
  fiber diameter: 104±4 nm
[3]; hydrogels 15-19 at 1% w/v
  G′/G″ ratio: 16.5
  G′ (modulus storage): 5.12 kPa
  G″ (modulus loss): 0.31 kPa
[4]
  bacterial reduction: 4.9 Log10
[1]; [11]
  CGC: 0.3 % W/V
[1]; [12]
  pH: 4
[5]
  LVER (linear viscoelastic region): 0.98 ± 0.02%
[6]; cationic peptides 15-19
  Remarks (gel state): CG

## CN(C)CCCNC(=O)[C@H](Cc1ccccc1)NC(=O)c1ccccc1NC(=O)c1ccc2ccccc2c1.Cl [Compound 19, (S)-3-(2-(2-(2-naphthamido)benzamido)-3-phenylpropanamido)-N,N-dimethylpropan-1-aminium Chloride]
[2]
  fiber diameter: 87±6 nm
[3]; hydrogels 15-19 at 1% w/v
  G′/G″ ratio: 10.1
  G′ (modulus storage): 1.61 kPa
  G″ (modulus loss): 0.16 kPa
[4]
  bacterial reduction: 3.0 Log10
[1]; [11]
  CGC: 0.3 % W/V
[1]; [12]
  pH: 5
[5]
  LVER (linear viscoelastic region): 1.00 ± 0.01%
[6]; cationic peptides 15-19
  Remarks (gel state): CG
